Legend:
MAP kinase p38 = MAP kinase p38 (Homo sapiens, UniProt O15264+Q15759+Q16539+P53778); experiment: Compound was tested for inhibition of p38 MAP kinase; type: protein assay
CYP2D6 = CYP2D6 (Homo sapiens, UniProt P10635); experiment: Percent inhibition of human hepatic cytochrome P450 2D6 at 10 uM; type: ADME
Mus musculus [1] = organism: Mus musculus; experiment: Effective dose required to determine the oral activity in the mouse LPS-induced TNF alpha assay; type: functional
Mus musculus [2] = experiment: Effective dose required to determine the oral activity in the mouse LPS-induced TNF alpha assay at a dose of 50 mg/kg; type: functional
Mus musculus [3] = experiment: Effective dose required to determine the oral activity in the mouse LPS-induced TNF alpha assay at a dose of 50 mg/Kg; type: functional

Sequence of CYP2D6 (P10635 whole entry): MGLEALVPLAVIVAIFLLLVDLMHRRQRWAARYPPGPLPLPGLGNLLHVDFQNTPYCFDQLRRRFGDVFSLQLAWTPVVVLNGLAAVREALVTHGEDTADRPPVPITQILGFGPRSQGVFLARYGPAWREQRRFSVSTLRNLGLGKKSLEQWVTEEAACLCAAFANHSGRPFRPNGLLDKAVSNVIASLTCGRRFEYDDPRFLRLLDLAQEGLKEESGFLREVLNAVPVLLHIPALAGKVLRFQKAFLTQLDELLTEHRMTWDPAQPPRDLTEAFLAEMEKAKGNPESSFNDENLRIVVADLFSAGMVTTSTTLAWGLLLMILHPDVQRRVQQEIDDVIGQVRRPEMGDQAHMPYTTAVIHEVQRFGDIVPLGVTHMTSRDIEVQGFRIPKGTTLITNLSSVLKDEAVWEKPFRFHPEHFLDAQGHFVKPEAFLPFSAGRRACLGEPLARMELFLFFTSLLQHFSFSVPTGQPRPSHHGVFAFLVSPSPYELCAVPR

Work on `CSc1nc(N)cc(-c2c(-c3ccc(F)cc3)ncn2CCCN2CCOCC2)n1` yielded an IC50 (MAP kinase p38) of over 17 µM.
`CNc1nccc(-c2c(-c3ccc(F)cc3)ncn2CCCN2CCOCC2)n1` showed an IC50 (MAP kinase p38) of 1.9 µM, an inhibition at 10 µM (CYP2D6) of 11% and an ED50 (Mus musculus [1]) of 19 mg/kg.
`C[S+]([O-])c1nccc(-c2c(-c3ccc(F)cc3)ncn2CCCN2CCOCC2)n1` (stereo not drawn) gave an IC50 (MAP kinase p38) of 2.2 µM and an inhibition in vivo at 50 mg/kg (Mus musculus [2]) of 37%.
In the case of `COc1cc(-c2c(-c3ccc(F)cc3)ncn2CCCN2CCOCC2)ncn1`, the IC50 (MAP kinase p38) is reported as over 17 µM.
With `CSc1nccc(-c2c(-c3ccc(F)cc3)ncn2CCCN2CCOCC2)n1` the IC50 (MAP kinase p38) was 2 µM, the inhibition at 10 µM (CYP2D6) was 47% and the ED50 (Mus musculus [1]) was 43 mg/kg.
Compound `Cc1cc(-c2c(-c3ccc(F)cc3)ncn2CCCN2CCOCC2)cc(C)n1` has an IC50 (MAP kinase p38) of over 17 µM.
Compound `COc1nccc(-c2c(-c3ccc(F)cc3)ncn2CCCN2CCOCC2)n1` has an inhibition at 10 µM (CYP2D6) of 7% and an ED50 (Mus musculus [1]) of 14 mg/kg.
With `Nc1nccc(-c2c(-c3ccc(F)cc3)ncn2CCCN2CCOCC2)n1` the inhibition at 10 µM (CYP2D6) was 47%.
For `Fc1ccc(-c2ncn(CCCN3CCOCC3)c2-c2ccncn2)cc1`, the inhibition at 10 µM (CYP2D6) was 34% and the ED50 (Mus musculus [1]) was 12 mg/kg.
Compound `Cc1nccc(-c2c(-c3ccc(F)cc3)ncn2CCCN2CCOCC2)n1` has an IC50 (MAP kinase p38) of 1.3 µM, an inhibition in vivo at 50 mg/kg (Mus musculus [3]) of 65% and an inhibition at 10 µM (CYP2D6) of 19%.
In the case of `Cc1cc(-c2c(-c3ccc(F)cc3)ncn2CCCN2CCOCC2)nc(N)n1`, the IC50 (MAP kinase p38) is reported as over 17 µM.
`CN(C)c1nccc(-c2c(-c3ccc(F)cc3)ncn2CCCN2CCOCC2)n1` was tested, and the IC50 (MAP kinase p38) was 3.6 µM.
Compound `Cc1cc(-c2c(-c3ccc(F)cc3)ncn2CCCN2CCOCC2)ccn1` has an IC50 (MAP kinase p38) of 2.1 µM, an inhibition at 10 µM (CYP2D6) of 51% and an inhibition in vivo at 50 mg/kg (Mus musculus [2]) of 37%.
Work on `CC(=O)Nc1cc(-c2c(-c3ccc(F)cc3)ncn2CCCN2CCOCC2)ncn1` yielded an IC50 (MAP kinase p38) of 3.5 µM and an inhibition in vivo at 50 mg/kg (Mus musculus [2]) of 21%.
`CC(=O)Nc1nccc(-c2c(-c3ccc(F)cc3)ncn2CCCN2CCOCC2)n1` showed an IC50 (MAP kinase p38) of 0.46 µM and an inhibition in vivo at 50 mg/kg (Mus musculus [2]) of 12%.
`Nc1cc(-c2c(-c3ccc(F)cc3)ncn2CCCN2CCOCC2)ncn1` gave an IC50 (MAP kinase p38) of over 17 µM.
`Oc1nccc(-c2c(-c3ccc(F)cc3)ncn2CCCN2CCOCC2)n1` was tested, and the IC50 (MAP kinase p38) was 5.5 µM and the inhibition in vivo at 50 mg/kg (Mus musculus [2]) was 33%.
In the case of `Fc1ccc(-c2ncn(CCCN3CCOCC3)c2-c2ccncc2)cc1` [SB-210313], the inhibition at 10 µM (CYP2D6) is reported as 86% and the ED50 (Mus musculus [1]) is reported as 42 mg/kg.

Source: ChEMBL document CHEMBL1130658 (Bioorg Med Chem Lett, 1998)
